Experimental data reported in patent US20130189200A1, “Oral Composition For Removing Tooth Stain” (REGENETISS, INC., priority 2010, published 2013).

Assay: Whitening effect evaluation test (residual ratio of stain on tea-stained dry apatite)
Procedure: 1 to 2 g of hydroxyapatite (Biogel-HTP, Bio-Rad Laboratories, Inc.) was put into a 50 mL tube, and 20 mL of protein solution (1%, IXOS SCP5000, Nitta Gelatin Inc.) was added thereto, and the mixture was left to stand for 10 to 15 minutes, and then the mixture was separated by centrifugation at 3,000×g for 2 minutes to remove a supernatant. Next, after the centrifugation, 20 mL of stain solution (5 g of instant coffee, two tea bags and two green tea bags were put into 110 mL of water, and the mixture was heated by a microwave oven for 2 minutes. Then the mixture was cooled down at room temperature with shaking for 3 hours to one night. Then the mixture was filtered by a 200 mesh filter. The stain liquid was obtained like this.) was mixed with the precipitated apatite, and the mixture was left to stand for 10 to 15 minutes, and then the mixture was separated by centrifugation (2,500 rpm, 2 minutes) to remove a supernatant. Then, after centrifugation, 20 mL of artificial saliva (20 mM HEPES-KOH pH 7.0, 1.5 mM CaCl2 and 0.9 mM KH2PO4) was added into the precipitated apatite, and the mixture was left to stand for 10 to 15 minutes, and then the mixture was separated by centrifugation (2,500 rpm, 2 minutes). After removal of a supernatant from the mixture, the precipitated apatite was dried.
20 mg of the tea-stained dry apatite is weighed, and 0.3 mL of solution was added thereto, which contains H2O2 at various concentrations and, as appropriate, various phosphate polymers, NaOH and other substances, and then the mixture was left to stand at a certain temperature for a certain time. Then the apatite was precipitated by centrifugation (3,000×g, 15 seconds), and a supernatant was removed from the mixture, and then the apatite was mixed well with 1 mL of water to wash. Further, subsequent washing procedure was repeated four times. After that, the apatite was suspended in 200 μL of water, and the suspension was poured into a well of a 96 well microtiter plate. The 96 well microtiter plate was scanned from the bottom by a scanner (Epson GT8300). The image was inverted to be negative, and brightness analysis was performed by means of imageJ (free software), and then the residual ratio of stain was calculated.

Row | SMILES | Residual ratio of stain (15% carbamide peroxide alone, NaOH 0 N, pH 7.0, 45 °C, 30 min) | Residual ratio of stain (15% carbamide peroxide alone, NaOH 0 N, pH 7.0, 45 °C, 60 min) | Residual ratio of stain (15% carbamide peroxide alone, NaOH 1 N, pH 11.4, 45 °C, 30 min) | Residual ratio of stain (15% carbamide peroxide alone, NaOH 1 N, pH 11.4, 45 °C, 60 min) | Residual ratio of stain (30% carbamide peroxide alone, NaOH 0 N, pH 7.1, 45 °C, 60 min) | Residual ratio of stain (30% carbamide peroxide alone, NaOH 1 N, pH 10.9, 45 °C, 30 min) | Residual ratio of stain (30% carbamide peroxide alone, NaOH 1 N, pH 10.9, 45 °C, 60 min) | Residual ratio of stain (highest whitening effect) (carbamide peroxide only, 30%, alkaline condition, treatment time 60 minutes (so in the source)) | Residual ratio of stain (3.5% H2O2, 0% ultraphosphate, pH 7.5, 42 °C, 10 min) | Residual ratio of stain (3.5% H2O2, 0% ultraphosphate, pH 7.5, 42 °C, 30 min) | Residual ratio of stain (3.5% H2O2, 0% ultraphosphate, pH 7.5, 42 °C, 60 min) | Residual ratio of stain (3.5% H2O2, 0% ultraphosphate, pH 7.5, 42 °C, 180 min) | Residual ratio of stain (3.5% H2O2 alone, alkaline (1), pH 11.6, 45 °C, 30 min) | Residual ratio of stain (20% hydrogen peroxide under alkaline condition, 30 minutes treatment)
1 | NC(N)=O.OO [carbamide peroxide] | 89.86% | 87.73% | 27.69% | 30.39% | 60.96% | 19.01% | 20.22% | 19.01% |  |  |  |  |  | 
2 | OO [hydrogen peroxide] |  |  |  |  |  |  |  |  | 98.15% | 96.80% | 94.89% | 88.78% | 49.23% | 40.08%
